In US11685713B2, “Small molecule SHC blockers used for treating liver disease and metabolic disease” (Buto Corporation, priority 2019, dated 2023):

Experiments:
[1] = test system: Corticosterone model of Insulin resistance; assay: Glucose Tolerance Test in the Corticosterone model of Insulin resistance; type: in vivo, mice; conditions: for glucose tolerizing effect in the Corticosteroid model: FIG. 3, summary in Example 1E; for GTT: glucose intolerance at time points after glucose administration / GTT Area Under the Curve (AUC): glucose intolerance relative to placebo: mice, corticosterone 21 days, 10 mg/kg i.p. for the final 5 days; for GTT: glucose intolerance at time points after glucose administration: FIG. 3 A/B; for GTT Area Under the Curve (AUC): glucose intolerance relative to placebo: FIG. 3 C
Experimental: In a standard model of glucose intolerance and insulin insensitivity, corticosterone (CS) was dosed for 21 days, and in the drug treated group mice were administered Shc Blocker #3=RTX60933293 or #5=RTX73145433 at a dose of 10 mg/kg i.p. for the final 5 days of the 21-day CS treatment. […] By blocking the interaction of Shc protein with phosphotyrosines on the Insulin Receptor, a Shc blocker redirects more signaling to the insulin-sensitizing and glucose tolerizing phospho-Akt. Thus, peripheral cells become more sensitive per molecule insulin, and consequently more glucose tolerant. This prediction is borne out in the Corticosteroid model. Corticosterone is a known model of Type 2 Diabetes and Metabolic Syndrome, as Corticosterone induces peripheral insulin insensitivity.

[2] = test system: Methionine Choline-Deficient (MCD) Mouse model NASH; assay: Liver fibrosis markers in the MCD model of Non-alcoholic Steatohepatitis (NASH); type: in vivo; conditions: mice, MCD 8 weeks, 20 mg/kg orally the last 4 weeks, vs placebo
Experimental: Mice were fed the Liver fibrosis-inducing Methionine Choline-Deficient (MCD) Mouse model NASH for 8 weeks, and the last 4 weeks they were dosed orally with 20 mg/kg of compound number 3 (RTX60933293), compound number 5 (RTX73145433), or placebo. After 8 weeks of MCD dosing, mice were sacrificed, and livers were extracted for nucleic acids and classical markers of liver fibrosis were assayed by QRTPCR.
Without wishing to be bound by theory, NASH could be considered the next-most common metabolic disturbance after Type 2 Diabetes in the USA, and currently has no approved treatment. There is a usual progression from NAFLD (fatty liver) to the more fibrotic/cirrhotic NASH. While the precise mechanism of the transition of NAFLD to NASH is not completely understood, hepatocyte death and resulting fibrosis has been proposed. Fibrosis and fibrotic scarring are thought to be the most important pathophysiological endpoints to end-stage NASH, which typically necessitates an expensive and difficult liver transplant. As shown in other examples, Shc blockers through their sensitization to insulin, IGF-1 and other growth factors, are cytoprotective. Thus, by inhibiting hepatocyte death which promotes fibrosis, they should also be anti-fibrotic.

[3] = test system: Methionine Choline-Deficient (MCD) Mouse model NASH; assay: as above; type: in vivo; conditions: mice, MCD 8 weeks, 20 mg/kg orally the last 4 weeks, vs placebo; remark: listed apart in the source

How did the “glucose tolerizing effect in the Corticosteroid model” value [1] turn out when O=C(c1cccc(-n2cccc2)c1)N1CCOC(c2cccc(OC(F)F)c2)C1 (stereo not drawn) [Compound 5] was run?
The value was “significantly glucose tolerizing”.

What about the “GTT: glucose intolerance at time points after glucose administration” value [1] of the same compound?
Its value is “reduced glucose significantly at 2 time points”.

And the “GTT Area Under the Curve (AUC): glucose intolerance relative to placebo” value [1]?
Its value is “significantly reduced glucose intolerance”.

And the “Collagen 1a1 (Col1), liver, QRTPCR” value [2]?
The value was “significantly reduced”.

And the “Matrix Metalloproteinase 2 (MMP2), liver, QRTPCR” value [2]?
The value was “significantly reduced”.

What about the “Tissue metallopeptidase inhibitor 1 (TIMP1), liver, QRTPCR” value [2] of the same compound?
The value was “significantly reduced”.

What about the “Transforming Growth Factor beta (TGF-b), liver, QRTPCR” value [2] of the same compound?
The value was “significantly reduced”.

What about the “alpha-smooth muscle actin (aSMA), liver, QRTPCR” value [2] of the same compound?
Its value is “significantly reduced”.

What about the “liver fibrosis bio marker hydroxyproline” value [3] of the same compound?
The value was “significantly reduced”.

Which results are given for O=C(NCCS(=O)(=O)Cc1ccccc1)N1CC=C(c2cccc3ccccc23)C1 [Compound 3]?
glucose tolerizing effect in the Corticosteroid model [1]: significantly glucose tolerizing; GTT: glucose intolerance at time points after glucose administration [1]: reduced glucose intolerance significantly at 4 time points; GTT Area Under the Curve (AUC): glucose intolerance relative to placebo [1]: significantly reduced glucose intolerance; Collagen 1a1 (Col1), liver, QRTPCR [2]: significantly reduced; Matrix Metalloproteinase 2 (MMP2), liver, QRTPCR [2]: significantly reduced; Tissue metallopeptidase inhibitor 1 (TIMP1), liver, QRTPCR [2]: significantly reduced; Transforming Growth Factor beta (TGF-b), liver, QRTPCR [2]: significantly reduced; alpha-smooth muscle actin (aSMA), liver, QRTPCR [2]: significantly reduced; liver fibrosis bio marker hydroxyproline [3]: significantly reduced
